# Data from patent US10421989B2, “Methods and reagents for riboswitch analysis” (CORNELL UNIVERSITY, priority 2014, dated 2019).
# Where “and” joins values, the source holds several entries; their conditions need not be identical. Identical values can stand only once.
# Experiments:
# [1] = biological target: dye-labeled TPP riboswitch (WT/24-68); assay: smFRET titration of TPP, high-FRET state occupancy; type: binding, E. coli; details: TPP 0 to 100 μM, 2 mM Mg2+; fit y=ymax(x/x+Kd); read-out: estimated Kd (apparent dissociation constant)
# Experimental: FIG. 20. Former tpp The dye-labeled TPP riboswitch (WT/24-68) binds TPP with nanomolar affinity. The affinity of TPP for the WT/24-68 labeled construct was estimated by titrating TPP from 0 to 100 μM in the presence of 2 mM Mg^2+, and quantifying the change in population of fully folded riboswitch molecules (high-FRET state occupancy) as a function of TPP concentration using single-molecule FRET measurements. Shown (black squares) is the average high-FRET state occupancy value (total area under the curve) obtained by fitting population FRET histograms to three Gaussian distributions (low-, intermediate- and high-FRET) over three independent experiments. Each value was normalized to the percent high-FRET state occupancy observed at […]. […]
# smFRET data were acquired using a prism-based total internal reflection microscope, where the biotinylated TPP riboswitch was surface immobilized within PEG-passivated, strepatividin-coated quartz microfluidic devices. {Dave R, et al 2009} The Cy3 fluorophore was directly illuminated under 1.5 kW cm^−2 intensity at 532 nm (Laser Quantum). […] Fluorescence data were acquired using MetaMorph acquisition software (Universal Imaging Corporation) at a rate of 66.7 frames per second (15 ms integration). Fluorescence trajectories were selected from the movie files for analysis using automated image analysis software coded in Matlab (The MathWorks). […]
# [2] = biological target: truncated (ΔP3/A11AP) preQ1-II riboswitch aptamer construct; assay: 2-aminopurine fluorescence titration of preQ1 binding, truncated aptamer; design: species or system Streptococcus pneumoniae R6
# Experimental: (§1) FIG. 10. A11/2-Aminopurine (A11AP) fluorescence measurements of WT and ΔP3 preQ1-II riboswitch variants. (a) Secondary structure of the WT/A11AP (left) and ΔP3/A11AP (right) preQ1-II variant. (b) Qualitative fluorescence response upon Mg^2+ (4 mM) and subsequent preQ1 addition (10 μM) (λex=308 nm; detection at 372 nm). (c) Fluorescence emission spectra (λex=308 nm) from 320 to 480 nm for each preQ1 concentration. (d) Normalized 2AP fluorescence intensity plotted as a function of preQ1 concentrations, changes in fluorescence (F-F0) were normalized to the maximum fluorescence measured in the absence of ligands. […]
# (§2) Experiments were measured on a Cary Eclipse spectrophotometer (Varian) equipped with a peltier block and a magnetic stirring device. […] Spectra were recorded from 320 to 500 nm with excitation wavelength 308 nm and scan rate of 120 nm/min. The apparent binding constants KD were determined by following the increase in fluorescence after each titration step via integration of the area between 330 and 450 nm. Changes in fluorescence (F-F0) were normalized to the maximum fluorescence measured in the absence of ligand. Measurements for each titration step was repeated at least two times and the mean of the normalized fluorescence intensity was plotted against ligand concentration. The final KD value is the arithmetic mean, determined from two to three independent titration experiments.
# [3] = biological target: wild-type (A11AP) preQ1-II riboswitch aptamer construct; assay: 2-aminopurine fluorescence titration of preQ1 binding, wild-type aptamer; design: species or system Streptococcus pneumoniae R6; details: 0.5 μM RNA, 50 mM KMOPS, 100 mM KCl, Mg2+, 25° C.; 2-aminopurine at position A11
# Experimental: as §1, §2
SMILES,Kd [1],"Kd ([2]; 0.5 μM RNA, 50 mM KMOPS, 100 mM KCl, Mg2+, 25° C., 2-aminopurine at position A11) [nM]",decrease in affinity compared to the wild-type (A11AP) aptamer construct ([2]; truncated construct vs wild-type) [fold],Kd [3] [nM]
"Cc1ncc(C[n+]2csc(CCO[P@](=O)(O)OP(=O)(O)O)c2C)c(N)n1 [TPP, thiamine pyrophosphate]",~100 nM and 115 nM,–,–,–
"NCC1C=Nc2nc(N)[nH]c(=O)c21 (stereo not shown) [preQ1, 7-aminomethyl-7-deazaguanine]",–,4200 ± 100,10,430 ± 10
